Reference: patent US20250268919A1, “COMPOUNDS FOR THE TREATMENT OF CANCER” (Amneal Pharmaceuticals LLC, priority 2021, published 2025)
Values belong to the molecule of their own block, whether it stands above or below them.

What was measured:
[1] = in vitro; conditions: human, Caco-2
[2] = Pharmacokinetic study in monkey, single oral dose; type: in vivo; conditions: 50 mg/kg single oral; Cynomolgus monkey; plasma
Experimental: The objective of the study was to evaluate pharmacokinetic exposure of compound 121 after per oral dosing at 25 mg/kg dose and Fulvestrant after per oral dosing at 50 mg/kg dose in Cynomolgus monkey. The study was performed in overnight fasted Cynomolgus monkeys.
Blood samples were collected at each time points like 0 h (pre-dose) and 0.25, 0.5, 1, 2, 4, 8, 12, 24, 36 and 48 h post-dose via the cephalic or saphenous veins into polyethylene microcentrifuge tubes containing potassium (K2) EDTA. There were total 11 time points, n=1 monkey. All blood samples were mixed well by inversion and placed on wet ice until processed for plasma. Blood samples were centrifuged at 2˜8° C. for 10 min at 3000 g to collect plasma. Plasma samples of approximately […] at each time point were used for the bioanalysis. The plasma samples were stored frozen in a freezer set to maintain −60° C. to −70° C. until LC/MS/MS analysis.
Bioanalysis was performed using fit-for-purpose LC-MS/MS method for the quantification of compound 121 or Fulvestrant in plasma samples. The calibration curve was prepared in stabilized blank monkey plasma over 1-1000 ng/mL range for compound 121 and 1-3000 ng/mL range for Fulvestrant. Samples were cleaned up using the protein precipitation technique and analysed by LC-MS/MS.
The plasma pharmacokinetic parameters were calculated using standard non-compartmental analysis (using linear trapezoidal method with linear interpolation.)

[3] = system: MCF7 tumor; assay: Anticancer efficacy of compound 121 in nude mice bearing MCF7 tumor; type: in vivo; conditions: 1 mg/mouse (~33.3 mg/kg) subcutaneously; MCF-7 xenograft mice
Experimental: For this purpose, MCF7 cancer cells were procured from ATCC and grown in DMEM Medium supplemented with 10% FBS and 1% penicillin streptomycin. Cells were harvested when they reach 70-80% confluence for tumor implantation. 24 h prior to MCF7 cells implantation, the skin area around the injection site of nude mice were disinfected by mildly swabbing with surgical spirit. […] pellet (0.18 mg/pellet 60-day release, Innovative Research of America) was subcutaneously implanted into in the left flank region of the animals. For cell inoculation, cells were mixed with equal volume of Matrigel in a 1:1 ratio followed by injection of 5×10^6 MCF7 cells subcutaneously on the right flank region using a 1 mL syringe attached to a 24 G needle. On the subsequent days the injection site was monitored for tumor palpability. Tumor grafts were measured within 7-8 days of cell inoculation for tumor palpability. […]
After randomization, treatment was initiated when the average tumor volume reaches −200±50 mm^3. Tumor volume and mouse body weight were measured on the first day of treatment (Day 1) and then three times per week till 28 days as shown in FIG. 4. […]
Tumor volume (mm^3) was calculated using the formula, tumor length×(tumor width)2/2. Tumor growth inhibition will be calculated after normalizing the values to that on day 1. % TGI was calculated based on the formula below.

[4] = system: CACO-2 cell line; conditions: standard compounds at 5 μM; apical to basolateral
[5] = in vitro; conditions: human, microsomes, pH 7.4
Experimental: The assay was performed in duplicate.
Supernatant (200 μL) from each reaction tube was taken for LC-MS/MS analysis.

- efflux ratio at 5 μM [1]: 19.7
SMILES: C[C@H]1O[C@@H](O[C@H]2[C@@H](O)C[C@H](O[C@H]3[C@@H](O)C[C@H](O[C@H]4CC[C@@]5(C)[C@H](CC[C@@H]6[C@@H]5C[C@@H](O)[C@]5(C)[C@@H](C7=CC(=O)OC7)CC[C@]65O)C4)O[C@@H]3C)O[C@@H]2C)C[C@H](O)[C@@H]1O [Digoxin]

- AUC % Extrap [2]: Inestimable
- AUC_0-t [2]: Inestimable
- AUC_0-∞ [2]: Inestimable
- Cmax [2]: Inestimable
- Tmax [2]: Inestimable
SMILES: C[C@]12CC[C@@H]3c4ccc(O)cc4C[C@@H](CCCCCCCCC[S+]([O-])CCCC(F)(F)C(F)(F)F)[C@H]3[C@@H]1CC[C@@H]2O (stereo partly drawn) [Fulvestrant]
- % Tumor Growth Inhibition (% TGI) on day 28 [3]: 101%

SMILES: CC(C)NCC(O)COc1cccc2ccccc12 (stereo not drawn) [Propranolol]
- A-B permeability [4]: 62.15 ×10⁻⁶ cm/s

SMILES: CC(=O)N1CCN(c2ccc(OCC3COC(Cn4ccnc4)(c4ccc(Cl)cc4Cl)O3)cc2)CC1 (stereo not drawn) [Ketoconazole]
- half-life [5]: > 2 h
